Reference: patent US7323436B2, “Adduct having an acidic solution of sparingly-soluble group IIA complexes” (priority 1999, dated 2008)

Experiment: Contact with human skin and nose
Type: in vivo
Details: pH of less than 0.5
Source text: As discussed above, AGIIS has relatively less dehydrating properties (such as charring sucrose) as compared to the saturated solution of CaSO4 in the same concentration of H2SO4. […] AGIIS is non-volatile at room temperature.

O=S(=O)(O)O [sulfuric acid]
irritation of a hand put into the solution: an irritation would occur within a relatively short span of time
